Laboratory results: patent US10294247B2, “Beta-lactamase inhibitors” (VenatoRx Pharmaceuticals, Inc., priority 2014, dated 2019)

How the values were obtained:
Type in all cases: cell-based
[1] = tested on: S. aureus producing the Class A penicillinase PC-1; experiment: broth microdilution MIC assay, S. aureus PC-1; settings: Staphylococcus aureus; partner antibiotic alone, no inhibitor; S. aureus producing Class A penicillinase PC-1; CAMHB
Source text: (§1) To determine the ability of test compounds to potentiate the inhibition of the growth of bacterial strains that produce beta-lactamase enzymes, classic cell based broth microdilution MIC assays are employed. Six bacteria strains producing beta-lactamase enzymes are used: E. coli expressing the Class A Extended Spectrum Beta-Lactamase (ESBL) CTX-M-15, E. cloacae expressing the Class C P99, K. pneumoniae expressing the Class A carbapenemase KPC-3, P. aeruginosa expressing the Class B carbapenemase VIM-2, K. pneumoniae expressing the class A carbapenemase KPC-2 and the class B carbapenemase VIM-4, and S. aureus producing the Class A penicillinase PC-1. The assay is conducted in Cation Adjusted Mueller Hinton Broth (CAMHB, BD #212322, BD Diagnostic Systems, Sparks, Md.). Bacteria strains are grown for 3-5 hours in CAMBH broth. Test compounds are added to a microtiter plate in 2-fold serial dilutions in CAMHB in a final concentration range of 32 μg/mL to 0.25 μg/ml. An overlay of CAMHB containing a Beta-lactam is added to the compounds at a final static concentration of 4 μg/mL. […] After inoculation the plates are incubated for 16-20 hours at 37° C. then the Minimal Inhibitory Concentration (MIC) of the test compound is determined visually.

[2] = tested on: E. coli expressing the Class A Extended Spectrum Beta-Lactamase (ESBL) CTX-M-15; experiment: broth microdilution MIC assay, E. coli CTX-M-15; settings: Escherichia coli, read-out: MIC alone
Source text: as §1

[3] = tested on: E. cloacae expressing the Class C P99; experiment: broth microdilution MIC assay, E. cloacae P99; settings: Enterobacter cloacae, read-out: MIC alone
Source text: as §1

[4] = tested on: P. aeruginosa expressing the Class B carbapenemase VIM-2; experiment: broth microdilution MIC assay, P. aeruginosa VIM-2; settings: Pseudomonas aeruginosa, read-out: MIC alone
Source text: as §1

[5] = tested on: K. pneumoniae expressing the Class A carbapenemase KPC-3; experiment: broth microdilution MIC assay, K. pneumoniae KPC-3; settings: Klebsiella pneumoniae, read-out: MIC alone
Source text: as §1

[6] = tested on: K. pneumoniae expressing the class A carbapenemase KPC-2 and the class B carbapenemase VIM-4; experiment: broth microdilution MIC assay, K. pneumoniae KPC-2 and VIM-4; settings: Klebsiella pneumoniae; partner antibiotic alone, no inhibitor; K. pneumoniae expressing KPC-2 and VIM-4; CAMHB
Source text: as §1

**Q.** With `CCN1CCN(C(=O)N[C@@H](C(=O)N[C@@H]2C(=O)N3[C@@H]2SC(C)(C)[C@@H]3C(=O)O)c2ccccc2)C(=O)C1=O` [Piperacillin] as the compound, how does the MIC [1] read?
**A.** 64 µg/mL

**Q.** `CC(C)(O/N=C(\C(=O)N[C@@H]1C(=O)N2C(C(=O)[O-])=C(C[n+]3ccccc3)CS[C@H]12)c1csc(N)n1)C(=O)O` [Ceftazidime] was tested. Which MIC [2] did it give?
**A.** > 128 µg/mL

**Q.** And the MIC [3]?
**A.** 128 µg/mL

**Q.** Which MIC [4] does the source give for `C[C@@H](O)[C@H]1C(=O)N2C(C(=O)O)=C(S[C@@H]3CN[C@H](C(=O)N(C)C)C3)[C@H](C)[C@H]12` [Meropenem] here?
**A.** 16 µg/mL

**Q.** What about the MIC [5] of the same compound?
**A.** > 128 µg/mL

**Q.** And the MIC [6]?
**A.** 64 µg/mL
